In ChEMBL document CHEMBL4837228, “Generation and Biological Evaluation of Degraded Derivatives of the Three E/Z-Isomers of Yaku'amide B” (2021):

Tested on: MCF7
Experiment: Growth inhibition of human MCF7 cells for 48 hrs by sulforhodamine B assay
Assay type: functional

Row | SMILES | GI50
1 | CC/C(C)=C(\NC(=O)[C@H](C)NC(=O)/C(NC(=O)[C@@H](NC(=O)C(C)(C)C(=O)[C@@H](C)CC(C)C)[C@](C)(O)CC)=C(\C)CC)C(=O)N[C@@H](C(=O)N[C@@H](C(=O)N[C@@H](C(=O)N[C@H](C(=O)N/C(C(=O)N[C@H](C)C(=O)N[C@@H](C(=O)N[C@H](C(=O)NC(C(=O)N[C@H](CN(C)C)C(C)C)=C(C)C)C(C)C)C(C)C)=C(\C)CC)C(C)(C)O)C(C)(C)O)[C@@H](C)CC)C(C)C | 57.4 nM
2 | CC/C(C)=C(\NC(=O)CNC(=O)C(C)(C)C(=O)[C@@H](C)CC(C)C)C(=O)N[C@@H](C)C(=O)N/C(C(=O)N[C@@H](C(=O)N[C@@H](C(=O)N[C@@H](C(=O)N[C@H](C(=O)N/C(C(=O)N[C@H](C)C(=O)N[C@@H](C(=O)N[C@H](C(=O)NC(C(=O)N[C@H](CN(C)C)C(C)C)=C(C)C)C(C)C)C(C)C)=C(\C)CC)C(C)(C)O)C(C)(C)O)[C@@H](C)CC)C(C)C)=C(/C)CC | 26.8 nM
3 | CC/C(C)=C(\NC(=O)[C@@H](NC(=O)[C@H](NC(=O)[C@H](NC(=O)[C@H](NC(=O)/C(NC(=O)[C@H](C)NC(=O)/C(NC(=O)[C@@H](NC(=O)C(C)(C)C(=O)[C@@H](C)CC(C)C)[C@](C)(O)CC)=C(/C)CC)=C(/C)CC)C(C)C)[C@@H](C)CC)C(C)(C)O)C(C)(C)O)C(=O)N[C@H](C)C(=O)N[C@@H](C(=O)N[C@H](C(=O)NC(C(=O)N[C@H](CN(C)C)C(C)C)=C(C)C)C(C)C)C(C)C | 25.4 nM

More lines, in order of falling GI50, values ahead:

Row | GI50 | SMILES
4 | 304 nM | CC/C(C)=C(\NC(=O)CNC(=O)C(C)(C)C(=O)[C@@H](C)CC(C)C)C(=O)N[C@@H](C)C(=O)N/C(C(=O)N[C@@H](C(=O)N[C@@H](C(=O)N[C@@H](C(=O)NCC(=O)N/C(C(=O)N[C@H](C)C(=O)N[C@@H](C(=O)N[C@H](C(=O)NC(C(=O)N[C@H](CN(C)C)C(C)C)=C(C)C)C(C)C)C(C)C)=C(\C)CC)C(C)(C)O)[C@@H](C)CC)C(C)C)=C(/C)CC
5 | 47.7 nM | CC/C(C)=C(\NC(=O)[C@H](C)NC(=O)/C(NC(=O)CNC(=O)C(C)(C)C(=O)[C@@H](C)CC(C)C)=C(/C)CC)C(=O)N[C@@H](C(=O)N[C@@H](C(=O)N[C@@H](C(=O)N[C@H](C(=O)N/C(C(=O)N[C@H](C)C(=O)N[C@@H](C(=O)N[C@H](C(=O)NC(C(=O)N[C@H](CN(C)C)C(C)C)=C(C)C)C(C)C)C(C)C)=C(/C)CC)C(C)(C)O)C(C)(C)O)[C@@H](C)CC)C(C)C
6 | 28.2 nM | CC/C(C)=C(\NC(=O)[C@@H](NC(=O)[C@H](NC(=O)[C@H](NC(=O)[C@H](NC(=O)/C(NC(=O)[C@H](C)NC(=O)/C(NC(=O)CNC(=O)C(C)(C)C(=O)[C@@H](C)CC(C)C)=C(/C)CC)=C(/C)CC)C(C)C)[C@@H](C)CC)C(C)(C)O)C(C)(C)O)C(=O)N[C@H](C)C(=O)N[C@@H](C(=O)N[C@H](C(=O)NC(C(=O)N[C@H](CN(C)C)C(C)C)=C(C)C)C(C)C)C(C)C
7 | 24.6 nM | CC/C(C)=C(\NC(=O)[C@H](C)NC(=O)/C(NC(=O)[C@@H](NC(=O)C(C)(C)C(=O)[C@@H](C)CC(C)C)[C@](C)(O)CC)=C(/C)CC)C(=O)N[C@@H](C(=O)N[C@@H](C(=O)N[C@@H](C(=O)N[C@H](C(=O)N/C(C(=O)N[C@H](C)C(=O)N[C@@H](C(=O)N[C@H](C(=O)NC(C(=O)N[C@H](CN(C)C)C(C)C)=C(C)C)C(C)C)C(C)C)=C(/C)CC)C(C)(C)O)C(C)(C)O)[C@@H](C)CC)C(C)C
8 | 18.2 nM | CC/C(C)=C(\NC(=O)[C@@H](NC(=O)[C@H](NC(=O)[C@H](NC(=O)[C@H](NC(=O)/C(NC(=O)[C@H](C)NC(=O)/C(NC(=O)[C@@H](NC(=O)C(C)(C)C(=O)[C@@H](C)CC(C)C)[C@](C)(O)CC)=C(\C)CC)=C(/C)CC)C(C)C)[C@@H](C)CC)C(C)(C)O)C(C)(C)O)C(=O)N[C@H](C)C(=O)N[C@@H](C(=O)N[C@H](C(=O)NC(C(=O)N[C@H](CN(C)C)C(C)C)=C(C)C)C(C)C)C(C)C
